In US20230129095A1, “PEPTIDE INHIBITORS OF INTERLEUKIN-23 RECEPTOR AND THEIR USE TO TREAT INFLAMMATORY DISEASES” (Protagonist Therapeutics, Inc., priority 2020, published 2023):
*1 amine or outer side, *2 acyl side, *3 side chain or, on linkers, in order; H or OH if unused. Where a SMILES comes first, the peptide text is derived from it. Bridges are numbered along the chain shown (N, C = ends). [ ]: non-standard residue; d: D form. X5 = CC(C)c1cccc(-c2cccc3c(C[C@H](N[*:1])C(=O)[*:2])c[nH]c23)c1; X8 = COc1cccc(-c2cccc3c(C[C@H](N[*:1])C(=O)[*:2])c[nH]c23)c1; X7 = O=C([C@H](Cc1c[nH]c2cc(-c3ccccc3)ccc12)N[*:1])[*:2]; Trp(7-Ph) = N[C@@H](Cc1c[nH]c2c(-c3ccccc3)cccc12)C(=O)O; X4 = O=C([C@H](Cc1c[nH]c2c(-c3ccsc3)cccc12)N[*:1])[*:2]; Abu(4-yl) = O=C([C@H](CC[*:3])N[*:1])[*:2]; 2Nal = N[C@@H](Cc1ccc2ccccc2c1)C(=O)O; AEF = NCCOc1ccc(C[C@H](N)C(=O)O)cc1; Pen = CC(C)(S)[C@H](N)C(=O)O; αMeK = C[C@](N)(CCCCN)C(=O)O

Legend:
Format in all cases: in vitro ADME
[1] = Stability in simulated intestinal fluid (SIF); settings: 37° C.; for SIF t1/2: 100 fold dilution of standard SIF concentration, 20 μM; for half-life at 20 μM: pH 6.8, 100 fold dilution of standard SIF concentration, read-out: SIF t1/2 (converted)
Protocol: Studies were carried out in simulated intestinal fluid (SIF) and simulated gastric fluid (SGF) to evaluate gastric stability of the peptide inhibitors of the present invention. In addition, studies were carried out to assess redox stability of the peptide inhibitors of the present invention.
SIF was prepared by adding 6.8 g of monobasic potassium phosphate and 10.0 g of pancreatin to 1.0 L of water. After dissolution, the pH was adjusted to 6.8 using NaOH. DMSO stocks (2 mM) were first prepared for the test compounds. Aliquots of the DMSO solutions were dosed into 6 individual tubes, each containing 0.5 mL of SIF, which is pre-warmed to 37° C. The final test compound concentration was 20 μM. The vials were kept in a benchtop Thermomixer® for the duration of the experiment. At each timepoint (0, 5, 10, 20, 40, 60, or 360 minutes or 24 hours), 1.0 mL of acetonitrile containing 1% formic acid was added to one vial to terminate the reaction. Samples were stored at 4° C. until the end of the experiment. After the final timepoint is sampled, the tubes were mixed and then centrifuged at 3,000 rpm for 10 minutes. Aliquots of the supernatant were removed, diluted 1:1 into distilled water containing internal standard, and analyzed by LCMS/MS. Percent remaining at each timepoint was calculated based on the peak area response ratio of test to compound to internal standard. Time 0 was set to 100%, and all later timepoints were calculated relative to time 0. Half-lives were calculated by fitting to a first-order exponential decay equation using Graphpad.

[2] = Stability in human fecal homogenate (anaerobic); settings: pH 6.8, 20% human fecal homogenate, 37° C., up to 24 hours, read-out: t1/2: Human Feces anaerobic
Protocol: (§1) Studies were carried out in human or cynomolgus monkey fecal homogenate to evaluate gastrointestinal stability of the peptide inhibitors of the present invention.
(§2) Fecal homogenate ([…]) was prepared by adding 4 mL of growth medium (1 liter contains 2 g peptone water powder, 2 g yeast extract, 0.1 g NaCl, 0.04 g KH2PO4, 0.01 g CaCl2.6H2O, 0.01 g MgSO4.7H2O, 2 mL Tween 80, 0.5 g bile salts, 0.5 g L-cysteine HCl, 2 g NaHCO3, and 10 μL Vitamin K, pH adjusted to 6.8, and sterilized by filtration through a 0.22 μm filter) to every gram of feces (pooled freshly collected human or cynomolgus monkey feces). The suspension was vortexed to break up large clumps, and homogenized using a bead mill homogenizer. Centrifuged the homogenate at 2800×g for 15 min. The supernatant is taken out and used for incubations. DMSO stocks (10 mM) were first prepared for the test compounds. Incubations were performed in an anaerobic chamber conditioned at 37° C. Aliquots of the DMSO solutions were dosed into 1.0 mL aliquots of 20% fecal homogenate, which are pre-warmed to 37° C. The final test compound concentration was 20 μM. At each timepoint (0, 20 min, 1, 3, 6, or 24 hours), 100 μL aliquot of each incubation mixture is taken out and added to separate tubes containing 300 μL of 50% acetonitrile/50% methanol and an internal standard to terminate the reaction. Samples were taken out of the anaerobic chamber and stored at 4° C. until the end of the experiment. After the final timepoint is sampled, the tubes were mixed and then centrifuged at 3,000 rpm for 10 minutes. Aliquots of the supernatant were removed, diluted 1:1 into distilled water containing 0.1% formic acid, and analyzed by LC/MS/MS. Percent remaining at each timepoint was calculated based on the peak area response ratio of test to compound to internal standard. Time 0 was set to 100%, and all later timepoints were calculated relative to time 0. Half-lives were calculated by fitting to a first-order exponential decay equation using Graphpad or Excel.

[3] = Stability in cynomolgus monkey fecal homogenate (anaerobic); settings: pH 6.8, 20% cynomolgus monkey fecal homogenate, 37° C., up to 24 hours, read-out: t1/2: Monkey Feces anaerobic (converted)
Protocol: as §1, §2

Stability in rat plasma = settings: both sexes, SD rat plasma, EDTA, 37° C., up to 24 hours, read-out: t1/2: Rat Plasma EDTA
Protocol: Peptides of interest (20 μM) were incubated with pre-warmed rat plasma (SD rat, mixed gender pooled, EDTA, filtered through 0.22 μm, BioreclamationIVT) at 37° C. Aliquots were taken at various time points up to 24 hours (e.g. 0, 0.25, 1, 3, 6 and 24 hr), and immediately quenched with 4 volumes of organic solvent (acetonitrile/methanol (1:1) and 0.1% formic acid, containing 1 μM internal standard). Quenched samples were stored at 4° C. until the end of the experiment and centrifuged at 4,000 rpm for 10 minutes. The supernatant were diluted 1:1 with deionized water and analyzed using LC-MS. Percentage remaining at each time point was calculated based on the peak area ratio (analyte over internal standard) relative to the initial level at time zero. Half-lives were calculated by fitting to a first-order exponential decay equation using GraphPad.

[4] = 20% fecal homogenate (supernatant)

Structure (SMILES)	SIF t1/2 [1] [h]	half-life at 20 μM [2, 4] [h]	half-life at 20 μM [3, 4] [h]	half-life at 20 μM (Stability in rat plasma) [h]	half-life at 20 μM [2] [h]	half-life at 20 μM [3] [h]	half-life at 20 μM (Stability in rat plasma; pooled) [h]	half-life at 20 μM [1] [h]
CC(=O)NCCCC[C@H](NC(=O)[C@](C)(CCCCN)NC(=O)[C@H](Cc1ccc2ccccc2c1)NC(=O)[C@H](Cc1ccc(OCCN)cc1)NC(=O)[C@H]1NC(=O)[C@H](CCC(N)=O)NC(=O)[C@H](Cc2c[nH]c3c(-c4ccsc4)cccc23)NC(=O)[C@H]([C@@H](C)O)NC(=O)[C@H](CC(N)=O)NC(=O)[C@@H](NC(C)=O)C(C)(C)SSC1(C)C)C(=O)N[C@@H](CC(N)=O)C(=O)N[C@H](CCCCN)C(N)=O [Peptide 2] (Ac-[Pen]NT[X4]Q[Pen][AEF][2Nal][αMeK]K(Ac)N[dK]-NH2; disulfide 1-6)	24	> 24	> 24	> 24	–	–	–	–
CC(=O)NCCCC[C@@H]1NC(=O)[C@H](Cc2c[nH]c3c(-c4ccccc4)cccc23)NC(=O)[C@H]([C@@H](C)O)NC(=O)[C@H](CCC(N)=O)NC(=O)[C@@H](NC(=O)[C@@H](CCCNC(=N)N)NC(C)=O)CCSC[C@@H](C(=O)N[C@@H](Cc2ccc(OCCN)cc2)C(=O)N[C@@H](Cc2ccc3ccccc3c2)C(=O)N[C@@](C)(CCCCN)C(=O)N[C@@H](CCCCNC(C)=O)C(=O)N[C@@H](CC(N)=O)C(=O)N[C@H](CC(C)C)C(N)=O)NC1=O [Peptide 3, Ac-[(D)Arg]-Abu-Q-T-[W(7-Ph)]-[Lys(Ac)]-[Cys]-Phe[4-(2-aminoethoxy)]-[2-Nal]-[a-MeLys]-[Lys(Ac)]-N-[(D)Leu]-NH2] (Ac-[dR][Abu(4-yl)]QT[Trp(7-Ph)]K(Ac)C[AEF][2Nal][αMeK]K(Ac)N[dL]-NH2; thioether 2-7)	24	–	–	–	> 24	> 24	> 24	–
CC(=O)NCCCC[C@@H]1NC(=O)[C@H](Cc2c[nH]c3c(-c4ccccc4)cccc23)NC(=O)[C@H]([C@@H](C)O)NC(=O)[C@H](CCC(N)=O)NC(=O)[C@@H](NC(=O)[C@@H](CCCNC(=N)N)NC(C)=O)CCSC[C@@H](C(=O)N[C@@H](Cc2ccc(OCCN)cc2)C(=O)N[C@@H](Cc2ccc3ccccc3c2)C(=O)N[C@@](C)(CCCCN)C(=O)N[C@@H](CCCCNC(C)=O)C(=O)N[C@@H](CC(N)=O)C(N)=O)NC1=O [Peptide 4, Ac-[(D)Arg]-[Abu]-Q-T-[W(7-Ph)]-[Lys(Ac)]-[Cys]-Phe[4-(2-aminoethoxy)]-[2-Nal]-[a-MeLys]-[Lys(Ac)]-NNH2] (Ac-[dR][Abu(4-yl)]QT[Trp(7-Ph)]K(Ac)C[AEF][2Nal][αMeK]K(Ac)N-NH2; thioether 2-7)	–	–	–	–	> 24	14.1	> 24	5.1
CC(=O)NCCCC[C@@H]1NC(=O)[C@H](Cc2c[nH]c3c(-c4ccccc4)cccc23)NC(=O)[C@H]([C@@H](C)O)NC(=O)[C@H](CCC(N)=O)NC(=O)[C@@H](NC(=O)[C@@H](CCCNC(=N)N)NC(C)=O)CCSC[C@@H](C(=O)N[C@@H](Cc2ccc(OCCN)cc2)C(=O)N[C@@H](Cc2ccc3ccccc3c2)C(=O)N[C@@](C)(CCCCN)C(=O)N[C@@H](CCCCNC(C)=O)C(=O)N[C@@H](CC(N)=O)C(=O)N[C@H](CCCCN)C(N)=O)NC1=O [Peptide 5, Ac-[(D)Arg]-[Abu]-Q-T-[W(7-Ph)]-[Lys(Ac)]-[Cys]-Phe[4-(2-aminoethoxy)]-[2-Nal]-[a-MeLys]-[Lys(Ac)]-N-[(D)Lys)]-NH2] (Ac-[dR][Abu(4-yl)]QT[Trp(7-Ph)]K(Ac)C[AEF][2Nal][αMeK]K(Ac)N[dK]-NH2; thioether 2-7)	–	–	–	–	> 24	> 24	> 24	6
CC(=O)NCCCC[C@@H]1NC(=O)[C@H](Cc2c[nH]c3cc(-c4ccccc4)ccc23)NC(=O)[C@H]([C@@H](C)O)NC(=O)[C@H](CC(N)=O)NC(=O)[C@@H](NC(C)=O)C(C)(C)SSC(C)(C)[C@@H](C(=O)N[C@@H](Cc2ccc(OCCN)cc2)C(=O)N[C@@H](Cc2ccc3ccccc3c2)C(=O)N[C@@](C)(CCCCN)C(=O)N[C@@H](CCCCNC(C)=O)C(=O)N[C@@H](CC(N)=O)C(=O)N[C@H](CCCCN)C(N)=O)NC1=O [Peptide 6, Ac-[Pen]-N-T-[W(6-Ph)]-[Lys(Ac)]-[Pen]-Phe[4-(2-aminoethoxy)]-[2-Nal]-[a-MeLys]-[Lys(Ac)]-N-[(D)Lys)]-NH2] (Ac-[Pen]NT[X7]K(Ac)[Pen][AEF][2Nal][αMeK]K(Ac)N[dK]-NH2; disulfide 1-6)	24	–	–	–	> 24	> 24	> 24	–
COc1cccc(-c2cccc3c(C[C@@H]4NC(=O)[C@H]([C@@H](C)O)NC(=O)[C@H](CC(N)=O)NC(=O)[C@@H](NC(C)=O)C(C)(C)SSC(C)(C)[C@@H](C(=O)N[C@@H](Cc5ccc(OCCN)cc5)C(=O)N[C@@H](Cc5ccc6ccccc6c5)C(=O)N[C@@](C)(CCCCN)C(=O)N[C@@H](CCCCNC(C)=O)C(=O)N[C@@H](CC(N)=O)C(=O)N[C@H](CCCCN)C(N)=O)NC(=O)[C@H](CCCCNC(C)=O)NC4=O)c[nH]c23)c1 [Peptide 8, Ac-[Pen]-N-T-[W(7-(3-OMePh))][Lys(Ac)]-[Pen]-Phe[4-(2-aminoethoxy)]-[2-Nal]-[a-MeLys]-[Lys(Ac)]-N-[(D)Lys)]-NH2] (Ac-[Pen]NT[X8]K(Ac)[Pen][AEF][2Nal][αMeK]K(Ac)N[dK]-NH2; disulfide 1-6)	24	–	–	–	> 24	> 24	> 24	–
CC(=O)NCCCC[C@@H]1NC(=O)[C@H](Cc2c[nH]c3c(-c4cccc(C(C)C)c4)cccc23)NC(=O)[C@H]([C@@H](C)O)NC(=O)[C@H](CC(N)=O)NC(=O)[C@@H](NC(C)=O)C(C)(C)SSC(C)(C)[C@@H](C(=O)N[C@@H](Cc2ccc(OCCN)cc2)C(=O)N[C@@H](Cc2ccc3ccccc3c2)C(=O)N[C@@](C)(CCCCN)C(=O)N[C@@H](CCCCNC(C)=O)C(=O)N[C@@H](CC(N)=O)C(=O)N[C@H](CCCCN)C(N)=O)NC1=O [Peptide 11, Ac-[Pen]-N-T-[W(7-(3-iPrPh))]-[Lys(Ac)]-[Pen]-Phe[4-(2-aminoethoxy)]-[2-Nal]-[a-MeLys]-[Lys(Ac)]-N-[(D)Lys)]-NH2] (Ac-[Pen]NT[X5]K(Ac)[Pen][AEF][2Nal][αMeK]K(Ac)N[dK]-NH2; disulfide 1-6)	24	–	–	–	> 24	> 24	> 24	–
